# Measurements taken from ChEMBL document CHEMBL3351318, “Synthesis of novel 4-nitropyrrole-based semicarbazide and thiosemicarbazide hybrids with antimicrobial and anti-tubercular activity” (Bioorg Med Chem Lett, 2014).
# pIC50: −log10 of the molar value.
# Key:
# [1] = system: Mycobacterium tuberculosis; experiment: Antitubercular activity against Mycobacterium tuberculosis H37Rv after 7 days by Resazurin micro titer assay; type: functional; conditions: 168 h
# Escherichia coli [2] = experiment: Antimicrobial activity against Escherichia coli ATCC 25922 after 48 hrs by broth dilution technique; type: functional; conditions: ATCC 25922, 48 h
# Vero = experiment: Cytotoxicity against African green monkey Vero cells assessed as reduction in cell viability after 72 hrs by MTT assay; type: cell-based; conditions: Chlorocebus sabaeus
# Candida albicans [3] = experiment: Antimicrobial activity against Candida albicans after 48 hrs by agar dilution method; type: functional
# Klebsiella pneumoniae = experiment: Antimicrobial activity against Klebsiella pneumoniae after 48 hrs by broth dilution technique; type: functional
# Staphylococcus aureus [4] = experiment: Antimicrobial activity against methicillin-sensitive Staphylococcus aureus ATCC 35556 after 48 hrs by broth dilution technique; type: functional; conditions: ATCC 35556, 48 h
# Staphylococcus aureus [5] = experiment: Antimicrobial activity against methicillin-resistant Staphylococcus aureus ATCC 43866 after 48 hrs by broth dilution technique; type: functional; conditions: ATCC 43866, 48 h
# Candida albicans [6] = experiment: Ratio of Amphotericin B MIC to compound MIC for Candida albicans after 48 hrs by broth dilution technique; type: functional
# Staphylococcus aureus [7] = experiment: Ratio of ciprofloxacin MIC to compound MIC for methicillin-resistant Staphylococcus aureus ATCC 43866 after 48 hrs by broth dilution technique; type: functional
# Escherichia coli [8] = experiment: Ratio of ciprofloxacin MIC to compound MIC for Escherichia coli ATCC 25922 after 48 hrs by broth dilution technique; type: functional
SMILES,MIC [1],MIC (Escherichia coli [2]),pIC50 (Vero),MIC (Candida albicans [3]),MIC (Klebsiella pneumoniae),MIC (Staphylococcus aureus [4]),MIC (Staphylococcus aureus [5]),Ratio (Candida albicans [6]),Ratio (Staphylococcus aureus [7]),Ratio (Escherichia coli [8])
O=C(NNC(=O)c1cc([N+](=O)[O-])c[nH]1)Nc1ccccc1,40.6 µg/mL,3.12 µg/mL,3.45,3.12 µg/mL,3.12 µg/mL,1.56 µg/mL,3.12 µg/mL,–,–,–
COc1ccc(NC(=O)NNC(=O)c2cc([N+](=O)[O-])c[nH]2)cc1,2.5 µg/mL,3.12 µg/mL,3.40,3.12 µg/mL,3.12 µg/mL,1.56 µg/mL,3.12 µg/mL,–,–,–
O=C(NNC(=O)c1cc([N+](=O)[O-])c[nH]1)Nc1ccc([N+](=O)[O-])cc1,0.8 µg/mL,3.12 µg/mL,3.68,3.12 µg/mL,3.12 µg/mL,1.56 µg/mL,3.12 µg/mL,–,–,–
O=C(NNC(=O)c1cc([N+](=O)[O-])c[nH]1)Nc1ccc(Br)cc1,1.1 µg/mL,3.12 µg/mL,3.42,3.12 µg/mL,3.12 µg/mL,1.56 µg/mL,3.12 µg/mL,–,–,–
O=C(NNC(=O)c1cc([N+](=O)[O-])c[nH]1)Nc1ccc(Cl)cc1,2 µg/mL,3.12 µg/mL,3.66,3.12 µg/mL,3.12 µg/mL,3.12 µg/mL,6.25 µg/mL,–,–,–
COc1ccc(OC)c(NC(=O)NNC(=O)c2cc([N+](=O)[O-])c[nH]2)c1,14.5 µg/mL,3.12 µg/mL,3.48,3.12 µg/mL,3.12 µg/mL,1.56 µg/mL,3.12 µg/mL,–,–,–
O=C(NCc1ccccc1)NNC(=O)c1cc([N+](=O)[O-])c[nH]1,15.2 µg/mL,6.25 µg/mL,3.46,3.12 µg/mL,6.25 µg/mL,1.56 µg/mL,3.12 µg/mL,–,–,–
O=C(NCCc1ccccc1)NNC(=O)c1cc([N+](=O)[O-])c[nH]1,10.3 µg/mL,6.25 µg/mL,3.66,3.12 µg/mL,6.25 µg/mL,3.12 µg/mL,6.25 µg/mL,–,–,–
O=C(NCc1ccco1)NNC(=O)c1cc([N+](=O)[O-])c[nH]1,0.92 µg/mL,3.12 µg/mL,3.35,3.12 µg/mL,3.12 µg/mL,1.56 µg/mL,3.12 µg/mL,–,–,–
O=C(NNC(=O)c1cc([N+](=O)[O-])c[nH]1)NC1CCCC1,12.5 µg/mL,3.12 µg/mL,3.64,3.12 µg/mL,3.12 µg/mL,1.56 µg/mL,3.12 µg/mL,–,–,–
Cn1cc([N+](=O)[O-])cc1C(=O)NNC(=O)Nc1ccccc1,59.2 µg/mL,1.56 µg/mL,3.51,1.56 µg/mL,3.12 µg/mL,1.56 µg/mL,3.12 µg/mL,2,–,–
COc1ccc(NC(=O)NNC(=O)c2cc([N+](=O)[O-])cn2C)cc1,26.1 µg/mL,1.56 µg/mL,3.48,1.56 µg/mL,3.12 µg/mL,1.56 µg/mL,3.12 µg/mL,2,–,–
Cn1cc([N+](=O)[O-])cc1C(=O)NNC(=O)Nc1ccc([N+](=O)[O-])cc1,11.9 µg/mL,1.56 µg/mL,3.40,1.56 µg/mL,3.12 µg/mL,1.56 µg/mL,3.12 µg/mL,2,–,–
Cn1cc([N+](=O)[O-])cc1C(=O)NNC(=O)Nc1ccc(Br)cc1,7.8 µg/mL,1.56 µg/mL,3.22,1.56 µg/mL,3.12 µg/mL,1.56 µg/mL,3.12 µg/mL,2,–,–
Cn1cc([N+](=O)[O-])cc1C(=O)NNC(=O)Nc1ccc(Cl)cc1,30.5 µg/mL,1.56 µg/mL,3.54,1.56 µg/mL,3.12 µg/mL,1.56 µg/mL,3.12 µg/mL,2,–,–
COc1ccc(OC)c(NC(=O)NNC(=O)c2cc([N+](=O)[O-])cn2C)c1,42.4 µg/mL,1.56 µg/mL,3.37,1.56 µg/mL,6.25 µg/mL,3.12 µg/mL,6.25 µg/mL,2,–,–
C=[N+]([O-])c1cc(C(=O)NNC(=O)NCc2ccccc2)n(C)c1,51.9 µg/mL,3.12 µg/mL,3.52,1.56 µg/mL,3.12 µg/mL,1.56 µg/mL,3.12 µg/mL,2,–,–
Cn1cc([N+](=O)[O-])cc1C(=O)NNC(=S)NCc1ccccc1,31.9 µg/mL,1.56 µg/mL,3.62,1.56 µg/mL,3.12 µg/mL,0.78 µg/mL,1.56 µg/mL,2,4,–

SMILES,MIC [1],MIC (Escherichia coli [2]),pIC50 (Vero),MIC (Candida albicans [3]),MIC (Klebsiella pneumoniae),MIC (Staphylococcus aureus [4]),MIC (Staphylococcus aureus [5]),Ratio (Candida albicans [6]),Ratio (Staphylococcus aureus [7]),Ratio (Escherichia coli [8])
Cn1cc([N+](=O)[O-])cc1C(=O)NNC(=O)NCCc1ccccc1,42.1 µg/mL,3.12 µg/mL,3.20,1.56 µg/mL,6.25 µg/mL,1.56 µg/mL,3.12 µg/mL,2,–,–
Cn1cc([N+](=O)[O-])cc1C(=O)NNC(=O)NCc1ccco1,17 µg/mL,1.56 µg/mL,3.32,1.56 µg/mL,3.12 µg/mL,1.56 µg/mL,3.12 µg/mL,2,–,–
Cn1cc([N+](=O)[O-])cc1C(=O)NNC(=O)NC1CCCC1,38.7 µg/mL,1.56 µg/mL,3.57,1.56 µg/mL,3.12 µg/mL,1.56 µg/mL,3.12 µg/mL,2,–,–
O=C(NNC(=S)Nc1ccc([N+](=O)[O-])cc1)c1cc([N+](=O)[O-])c[nH]1,0.5 µg/mL,1.56 µg/mL,3.28,3.12 µg/mL,3.12 µg/mL,1.56 µg/mL,3.12 µg/mL,4,–,–
COc1ccc(NC(=S)NNC(=O)c2cc([N+](=O)[O-])c[nH]2)cc1,1.3 µg/mL,1.56 µg/mL,3.48,3.12 µg/mL,3.12 µg/mL,1.56 µg/mL,3.12 µg/mL,4,–,–
O=C(NNC(=S)Nc1ccc(F)cc1)c1cc([N+](=O)[O-])c[nH]1,0.56 µg/mL,1.56 µg/mL,3.48,3.12 µg/mL,3.12 µg/mL,1.56 µg/mL,3.12 µg/mL,4,–,–
O=C(NNC(=S)Nc1ccccc1F)c1cc([N+](=O)[O-])c[nH]1,0.82 µg/mL,1.56 µg/mL,3.33,3.12 µg/mL,3.12 µg/mL,1.56 µg/mL,3.12 µg/mL,4,–,–
O=C(NNC(=S)Nc1ccc(Cl)cc1)c1cc([N+](=O)[O-])c[nH]1,1.3 µg/mL,1.56 µg/mL,3.72,3.12 µg/mL,3.12 µg/mL,1.56 µg/mL,3.12 µg/mL,4,–,–
O=C(NNC(=S)NCCc1ccccc1)c1cc([N+](=O)[O-])c[nH]1,3.9 µg/mL,3.12 µg/mL,3.55,3.12 µg/mL,6.25 µg/mL,1.56 µg/mL,3.12 µg/mL,4,–,–
O=C(NNC(=S)NCc1ccccc1)c1cc([N+](=O)[O-])c[nH]1,7.3 µg/mL,3.12 µg/mL,3.40,3.12 µg/mL,6.25 µg/mL,3.12 µg/mL,6.25 µg/mL,4,–,–
O=C(NNC(=S)NC1CCCCC1)c1cc([N+](=O)[O-])c[nH]1,2.8 µg/mL,1.56 µg/mL,3.69,3.12 µg/mL,3.12 µg/mL,1.56 µg/mL,3.12 µg/mL,4,–,–
Cc1ccccc1NC(=S)NNC(=O)c1cc([N+](=O)[O-])c[nH]1,0.67 µg/mL,1.56 µg/mL,3.34,3.12 µg/mL,3.12 µg/mL,1.56 µg/mL,3.12 µg/mL,4,–,–
COc1cc(NC(=S)NNC(=O)c2cc([N+](=O)[O-])c[nH]2)cc(OC)c1OC,2.7 µg/mL,1.56 µg/mL,3.48,3.12 µg/mL,3.12 µg/mL,3.12 µg/mL,6.25 µg/mL,4,–,–
Cn1cc([N+](=O)[O-])cc1C(=O)NNC(=S)NCCc1ccccc1,23 µg/mL,0.78 µg/mL,3.39,0.78 µg/mL,3.12 µg/mL,0.39 µg/mL,0.78 µg/mL,4,–,–
COc1cc(NC(=S)NNC(=O)c2cc([N+](=O)[O-])cn2C)cc(OC)c1OC,21.5 µg/mL,0.39 µg/mL,3.41,0.78 µg/mL,1.56 µg/mL,0.78 µg/mL,1.56 µg/mL,4,–,4
C[C@@H]1[C@H](O)[C@@H](C)/C=C/C=C/C=C/C=C/C=C/C=C/C=C/[C@H](O[C@@H]2O[C@H](C)[C@@H](O)[C@H](N)[C@@H]2O)C[C@@H]2O[C@](O)(C[C@@H](O)C[C@@H](O)[C@H](O)CC[C@@H](O)C[C@@H](O)CC(=O)O[C@H]1C)C[C@H](O)[C@H]2C(=O)O [AMPHOTERICIN B],–,–,–,3.12 µg/mL,–,–,–,–,–,–
O=C(O)c1cn(C2CC2)c2cc(N3CCNCC3)c(F)cc2c1=O [CIPROFLOXACIN],–,–,–,–,1.56 µg/mL,1.56 µg/mL,3.12 µg/mL,–,–,–
NNC(=O)c1ccncc1 [ISONIAZID],0.4 µg/mL,–,–,–,–,–,–,–,–,–
